Data: patent US20230020663A1, “SULFONAMIDE INHIBITORS AS CTPS1 INHIBITORS” (Step Pharma S.A.S., priority 2019, published 2023)

Test system: human CTPS1 versus CTPS2
Test: Human CTPS1 versus CTPS2 selectivity assessment by RapidFire/MS analysis
Assay type: biochemical
Details: RapidFire/MS IC50 ratio
Procedure: Human CTPS1 versus CTPS2 Selectivity Assessment by RapidFire/MS Analysis.
The enzyme inhibitory activities against each target isoform of interest may be determined for the compounds of the invention using an optimised RapidFire high-throughput mass spectrometry (RF/MS) assay format. RF/MS assays for both human CTPS1 and CTPS2 may be performed in assay buffer consisting of 50 mM HEPES (Merck), 20 mM MgCl2, 5 mM KCl, 1 mM DTT, 0.01% Tween-20, pH to 8.0 accordingly. Human full-length active C-terminal FLAG-His-tag CTPS1 (UniProtKB—P17812, CTPS[1-591]-[…]) may be obtained from Proteros biostructures GmbH. Human full length active C-terminal FLAG-His-Avi tagged CTPS2 (UniProtKB-Q9NRF8, CTPS2 [1-586]-[…]) may be obtained from Harker Bio.
Human CTPS (1 or 2) protein may be prepared in 1× assay buffer to the final working protein concentration required for the reaction. A 2 uL volume per well of 2×CTPS (1 or 2) protein may be mixed with 40 nL of compound using acoustic (ECHO) delivery and incubated for 10 minutes at 25° C. Each isoform enzymatic reaction may be subsequently initiated by addition of 2 uL per well of a 2× substrate mix in assay buffer. For hCTPS1: ATP (0.3 mM), UTP (0.2 mM), GTP (0.07 mM) and L-glutamine (0.1 mM). For hCTPS2: ATP (0.1 mM), UTP (0.04 mM), GTP (0.03 mM) and L-glutamine (0.1 mM). Each mixture may be incubated for an appropriate amount of time per isoform within the determined linear phase of the reaction at 25′C. A 60 uL volume of stop solution (1% formic acid with 0.5 uM ^13C9-^15N3-CTP in H2O) may be added and the plate immediately heat-sealed and centrifuged for 10 minutes at 4,000 rpm. Following centrifugation, plates may be loaded onto the Agilent RapidFire microfluidic solid phase extraction system coupled to an API4000 triple quadrupole mass spectrometer (RF/MS) for analysis.
In all cases, the enzyme converts UTP to CTP. Highly specific and sensitive multiple reaction monitoring (MRM) MS methods may be optimised for the detection of the enzymatic reaction product, CTP, and the stable isotope labelled product standard ^13C9-^15N3-CTP. Readout for data analysis may be calculated as the ratio between the peak area of the product CTP and the internal standard ^13C9-^15N3-CTP. For data reporting, the following equation may be used: […]
For each screening plate, the means of the negative (DMSO) and positive control values were used for the calculation of the respective assay window (S/B) and Z′ values. The median of the respective control values was used for calculation of percent inhibition according to the following equation: […]
Percentage inhibition was then plotted against compound concentration, and the 50% inhibitory concentration (IC50) was determined from the resultant concentration-response curve.
Fold selectivity between CTPS1 and CTPS2 was subsequently calculated according to the following equation: […]

| SMILES | Selectivity (fold selectivity between CTPS1 and CTPS2) (Table 26) | Selectivity (fold selectivity between CTPS1 and CTPS2) (Table 27) |
| --- | --- | --- |
| CCOc1cncc(-c2ccc(NC(=O)C(F)(CC)c3ccnc(NS(=O)(=O)C4CC4)n3)nc2)n1 (racemic) [Example P112, 2-(2-(Cyclopropanesulfonamido)pyrimidin-4-yl)-N-(5-(6-ethoxypyrazin-2-yl)pyridin-2-yl)-2-fluorobutanamide] | ++ (>30-60 fold (++)) |  |
| CCOc1cncc(-c2ccc(NC(=O)C(F)(CC)c3ccnc(NS(=O)(=O)C4CC4)n3)nc2)n1 (single isomer, unassigned) [Example P113, 2-(2-(cyclopropanesulfonamido)pyrimidin-4-yl)-N-(5-(6-ethoxypyrazin-2-yl)pyridin-2-yl)-2-fluorobutanamide] | + (2-30 fold (+)) |  |
| CCOc1cncc(-c2ccc(NC(=O)C(F)(CC)c3ccnc(NS(=O)(=O)C4CC4)n3)nc2)n1 (single isomer, unassigned) [Example P114, 2-(2-(cyclopropanesulfonamido)pyrimidin-4-yl)-N-(5-(6-ethoxypyrazin-2-yl)pyridin-2-yl)-2-fluorobutanamide] | +++ (>60 fold (+++)) |  |
| CCOc1cncc(-c2ccc(NC(=O)C(F)(CC)c3cncc(NS(=O)(=O)C4CC4)n3)nc2)n1 (single isomer, unassigned) [Example P206] | +++ (>60 fold (+++)) |  |
| CCOc1cncc(-c2ccc(NC(=O)C(F)(CC)c3cncc(NS(=O)(=O)C4CC4)n3)nc2)n1 (single isomer, unassigned) [Example P207] | + (2-30 fold (+)) |  |
| CCOc1cncc(-c2ccc(NC(=O)C3(c4ccnc(NS(=O)(=O)C5CC5)n4)CCC(O)CC3)nc2)n1 (single isomer, unassigned) [Example P227, 1-(2-(cyclopropanesulfonamido)pyrimidin-4-yl)-N-(5-(6-ethoxypyrazin-2-yl)pyridin-2-yl)-4-hydroxycyclohexanecarboxamide] |  | +++ (>60 fold (+++)) |
| CCOc1cncc(-c2ccc(NC(=O)C3(c4ccnc(NS(=O)(=O)C5CC5)n4)CCC(O)CC3)nc2)n1 (single isomer, unassigned) [Example P228, 1-(2-(cyclopropanesulfonamido)pyrimidin-4-yl)-N-(5-(6-ethoxypyrazin-2-yl)pyridin-2-yl)-4-hydroxycyclohexanecarboxamide] |  | + (2-30 fold (+)) |
| CCOc1cncc(-c2ccc(NC(=O)C3(c4ccnc(NS(=O)(=O)C5CC5)n4)CCC(N(C)C)CC3)nc2)n1 (single isomer, unassigned) [Example P229, 1-(2-(cyclopropanesulfonamido)pyrimidin-4-yl)-4-(dimethylamino)-N-(5-(6-ethoxypyrazin-2-yl)pyridin-2-yl)cyclohexane-1-carboxamide] |  | +++ (>60 fold (+++)) |
| CCOc1cncc(-c2ccc(NC(=O)C3(c4ccnc(NS(=O)(=O)C5CC5)n4)CCC(N(C)C)CC3)nc2)n1 (single isomer, unassigned) [Example P230, 1-(2-(cyclopropanesulfonamido)pyrimidin-4-yl)-4-(dimethylamino)-N-(5-(6-ethoxypyrazin-2-yl)pyridin-2-yl)cyclohexane-1-carboxamide] |  | +++ (>60 fold (+++)) |
| CCC(C(=O)Nc1ccc(-c2cncc(Cl)c2)cc1)c1ccnc(NS(=O)(=O)C2CC2)n1 (stereo not shown) [Example P1, N-(4-(5-Chloropyridin-3-yl)phenyl)-2-(2-(cyclopropanesulfonamido)pyrimidin-4-yl)butanamide] | + (2-30 fold (+)) |  |
| CCOc1cncc(-c2ccc(NC(=O)C3(c4ccnc(NS(=O)(=O)C5CC5)n4)CCCC3)cc2)n1 [Example P2, 1-(2-(Cyclopropanesulfonamido)pyrimidin-4-yl)-N-(4-(6-ethoxypyrazin-2-yl)phenyl)cyclopentanecarboxamide] | +++ (>60 fold (+++)) |  |
| CC(C)Oc1cncc(-c2ccc(NC(=O)Cc3ccnc(NS(=O)(=O)C4CC4)n3)c(F)c2)n1 [Example P12] | ++ (>30-60 fold (++)) |  |
| O=C(Cc1ccnc(NS(=O)(=O)C2CC2)n1)Nc1ccc(-c2cccnc2)cc1 [Example P16] | ++ (>30-60 fold (++)) |  |
| CCOc1cncc(-c2ccc(NC(=O)Cc3ccnc(NS(=O)(=O)C4CC4)n3)cc2)n1 [Example P18, 2-(2-(Cyclopropanesulfonamido)pyrimidin-4-yl)-N-(4-(6-ethoxypyrazin-2-yl)phenyl)acetamide] | ++ (>30-60 fold (++)) |  |
| CC(C)Oc1cncc(-c2ccc(NC(=O)Cc3ccnc(NS(=O)(=O)C4CC4)n3)cc2)n1 [Example P21] | ++ (>30-60 fold (++)) |  |
| CCOc1cncc(-c2ccc(NC(=O)C(C)(C)c3ccnc(NS(=O)(=O)C4CC4)n3)nc2)n1 [Example P31] | +++ (>60 fold (+++)) |  |
| CCOc1cncc(-c2ccc(NC(=O)C(C)(C)c3ccnc(NS(=O)(=O)C4CC4)n3)c(C#N)c2)n1 [Example P34] | + (2-30 fold (+)) |  |

| SMILES | Selectivity (fold selectivity between CTPS1 and CTPS2) (Table 26) | Selectivity (fold selectivity between CTPS1 and CTPS2) (Table 27) |
| --- | --- | --- |
| CCOc1cncc(-c2ccc(NC(=O)C(C)(C)c3ccnc(NS(=O)(=O)C4CC4)n3)c(F)c2)n1 [Example P38] | + (2-30 fold (+)) |  |
| CC(C)Oc1cncc(-c2ccc(NC(=O)C(C)(C)c3ccnc(NS(=O)(=O)C4CC4)n3)c(F)c2)n1 [Example P39] | + (2-30 fold (+)) |  |
| CC(C)(C(=O)Nc1ccc(-c2cccnc2)cc1)c1ccnc(NS(=O)(=O)C2CC2)n1 [Example P59] | + (2-30 fold (+)) |  |
| CCOc1cncc(-c2ccc(NC(=O)C(C)(C)c3nc(NS(=O)(=O)C4CC4)ncc3F)cc2)n1 [Example P68] | ++ (>30-60 fold (++)) |  |
| CCOc1cncc(-c2ccc(NC(=O)C(C)(C)c3nc(NS(=O)(=O)C4CC4)ncc3C)cc2)n1 [Example P70] | + (2-30 fold (+)) |  |
| CCOc1cncc(-c2ccc(NC(=O)C(C)(C)c3ccnc(NS(=O)(=O)CC)n3)cc2)n1 [Example P74] | ++ (>30-60 fold (++)) |  |
| CCOc1cncc(-c2ccc(NC(=O)C(C)(C)c3ccnc(NS(C)(=O)=O)n3)nc2)n1 [Example P76] | ++ (>30-60 fold (++)) |  |
| CCOc1cncc(-c2ccc(NC(=O)C3(c4ccnc(NS(=O)(=O)C5CC5)n4)CC3)cc2)n1 [Example P83] | +++ (>60 fold (+++)) |  |
| CCC(C(=O)Nc1ccc(-c2cncc(C(F)(F)F)n2)cn1)c1ccnc(NS(=O)(=O)C2CC2)n1 (stereo not shown) [Example P87] | ++ (>30-60 fold (++)) |  |
| CCOc1cncc(-c2ccc(NC(=O)C(CC)c3ccnc(NS(=O)(=O)C4CC4)n3)nc2)n1 (stereo not shown) [Example P88] | +++ (>60 fold (+++)) |  |
| CCC(C(=O)Nc1ccc(-c2cncc(OC(C)C)n2)cn1)c1ccnc(NS(=O)(=O)C2CC2)n1 (stereo not shown) [Example P89] | +++ (>60 fold (+++)) |  |
| CCC(C(=O)Nc1ccc(-c2cncc(OC)n2)cc1F)c1ccnc(NS(=O)(=O)C2CC2)n1 (stereo not shown) [Example P95] | + (2-30 fold (+)) |  |
| CCOc1cncc(-c2ccc(NC(=O)C(CC)c3ccnc(NS(=O)(=O)C4CC4)n3)c(F)c2)n1 (stereo not shown) [Example P96] | + (2-30 fold (+)) |  |
| CCC(C(=O)Nc1ccc(-c2cncc(OCC(F)(F)F)n2)cc1F)c1ccnc(NS(=O)(=O)C2CC2)n1 (stereo not shown) [Example P98] | +++ (>60 fold (+++)) |  |
| CCC(C(=O)Nc1ccc(-c2cncc(C(F)(F)F)n2)cc1)c1ccnc(NS(=O)(=O)C2CC2)n1 (stereo not shown) [Example P103] | + (2-30 fold (+)) |  |
| CCOc1cncc(-c2ccc(NC(=O)C(CC)c3ccnc(NS(=O)(=O)C4CC4)n3)cc2)n1 (stereo not shown) [Example P105, 2-(2-(Cyclopropanesulfonamido)pyrimidin-4-yl)-N-(4-(6-ethoxypyrazin-2-yl)phenyl)butanamide] | ++ (>30-60 fold (++)) |  |
| CCC(C(=O)Nc1ccc(-c2cncc(OCC(F)(F)F)n2)cc1)c1ccnc(NS(=O)(=O)C2CC2)n1 (stereo not shown) [Example P108] | +++ (>60 fold (+++)) |  |
